Here are results for 13 compounds from the NIST ThermoML archive (doi:10.1021/je200327s).

± gives the expanded uncertainty stated by the source.

The conditions of series [1]: 101.3 kPa, Liquid, Vibrating tube method.
Series [2] can be described thus: xn = mol fraction of the nth substance listed. As to conditions: 101 kPa, Liquid, Vibrating tube method.

On to `CCCCCCCCCCCC` [dodecane], for which the results for the mass density in series [1] (298.2 K) and in series [1] (313.2 K) were 745.15 ± 0.24 kg/m3 and 734.325 ± 0.24 kg/m3, respectively.
Regarding `CCCCCCCC` [octane], the mass density (as a rule, the mass of a sample divided by its volume) in series [1] (298.2 K) is 698.569 ± 1.4 kg/m3; in series [1] (313.2 K), 686.365 ± 1.3 kg/m3.
Regarding `CCCCCCCCCC` [decane], the mass density in series [1] (298.2 K) stood at 726.1 ± 0.4 kg/m3; in series [1] (313.2 K), 714.726 ± 0.35 kg/m3.
Consider `CCCCCCCCC` [nonane], for which, in series [1] (298.2 K), the mass density is reported as 713.938 ± 0.36 kg/m3.
With `CCCCCCCCCCC` [undecane], the figures for the mass density in series [1] (298.2 K) and in series [1] (313.2 K) were 736.786 ± 0.34 kg/m3 and 725.693 ± 0.35 kg/m3, respectively.
`CCCCC` [pentane]: the mass density in series [1] (298.2 K) amounted to 624.932 ± 0.3 kg/m3.
With `CCCCCC` [hexane], the mass density in series [1] (298.2 K) was 655.039 ± 2.1 kg/m3.
With `c1ccc2c(c1)sc1ccccc12` [dibenzothiophene] + CCCCCCCC, the mass density turned out to be 699.866 ± 1.4 kg/m3 in series [2] (298.2 K, x1 = 0.0026); 701.048 ± 1.4 kg/m3 in series [2] (298.2 K, x1 = 0.0049); 701.696 ± 1.4 kg/m3 in series [2] (298.2 K, x1 = 0.0063); 704.954 ± 1.4 kg/m3 in series [2] (298.2 K, x1 = 0.0127); 707.967 ± 1.4 kg/m3 in series [2] (298.2 K, x1 = 0.0187); 711.182 ± 1.4 kg/m3 in series [2] (298.2 K, x1 = 0.0252). The mass density amounted to 687.657 ± 1.3 kg/m3 in series [2] (313.2 K, x1 = 0.0026); 688.882 ± 1.3 kg/m3 in series [2] (313.2 K, x1 = 0.0049); 689.525 ± 1.3 kg/m3 in series [2] (313.2 K, x1 = 0.0063); 692.813 ± 1.3 kg/m3 in series [2] (313.2 K, x1 = 0.0127); 695.851 ± 1.3 kg/m3 in series [2] (313.2 K, x1 = 0.0187); 699.1 ± 1.4 kg/m3 in series [2] (313.2 K, x1 = 0.0252).
Consider `Cc1cccc2c1sc1c(C)cccc12` [4,6-dimethyldibenzo[b,d]thiophene] + CCCCCCCCCCCC, for which the mass density in series [2] (298.2 K, x1 = 0.0031) came to 746.102 ± 0.24 kg/m3; in series [2] (298.2 K, x1 = 0.0053), 746.82 ± 0.24 kg/m3; in series [2] (298.2 K, x1 = 0.0076) it was 747.546 ± 0.24 kg/m3; in series [2] (313.2 K, x1 = 0.0031), 735.193 ± 0.24 kg/m3; in series [2] (313.2 K, x1 = 0.0053), 735.931 ± 0.24 kg/m3; in series [2] (313.2 K, x1 = 0.0076), 736.664 ± 0.24 kg/m3.
For `CCCCCCC` [heptane], the mass density in series [1] (298.2 K) was 679.857 ± 0.36 kg/m3.
Turning to `CC(C)CC(C)(C)C` [2,2,4-trimethylpentane], the mass density came out at 687.721 ± 0.28 kg/m3 in series [1] (298.2 K) and 675.225 ± 0.29 kg/m3 in series [1] (313.2 K).
Regarding `c1ccc2c(c1)sc1ccccc12` [dibenzothiophene] + CCCCCCCCCCCC, the mass density in series [2] (298.2 K, x1 = 0.0074) amounted to 747.569 ± 0.24 kg/m3; in series [2] (298.2 K, x1 = 0.0094), 748.147 ± 0.24 kg/m3; in series [2] (298.2 K, x1 = 0.0191), 751.276 ± 0.24 kg/m3; in series [2] (298.2 K, x1 = 0.0285) it was 754.322 ± 0.24 kg/m3; in series [2] (298.2 K, x1 = 0.0378), 757.354 ± 0.24 kg/m3; in series [2] (313.2 K, x1 = 0.0037), 735.448 ± 0.25 kg/m3. Besides, the mass density in series [2] (313.2 K, x1 = 0.0046) is recorded as 735.694 ± 0.24 kg/m3; in series [2] (313.2 K, x1 = 0.0074), 736.633 ± 0.24 kg/m3; in series [2] (313.2 K, x1 = 0.0098), 737.333 ± 0.24 kg/m3; in series [2] (313.2 K, x1 = 0.0142), 738.752 ± 0.24 kg/m3; in series [2] (313.2 K, x1 = 0.0187), 740.177 ± 0.24 kg/m3; in series [2] (313.2 K, x1 = 0.024) it was 741.874 ± 0.25 kg/m3. In addition, the mass density worked out at 743.953 ± 0.25 kg/m3 in series [2] (313.2 K, x1 = 0.0305); 744.662 ± 0.25 kg/m3 in series [2] (313.2 K, x1 = 0.0325); 746.081 ± 0.25 kg/m3 in series [2] (313.2 K, x1 = 0.0372); 755.317 ± 0.25 kg/m3 in series [2] (313.2 K, x1 = 0.0651).
`C1CCCCC1` [cyclohexane]: in series [1] (298.2 K), the mass density is 773.849 ± 0.27 kg/m3.
